SMILES strings stand for the structures.

In general, IC50 refers to the concentration at which inhibition is half-maximal. A higher IC50 goes with weaker potency in that assay.

This assay concerns the target T1, human TLR8 (Homo sapiens, UniProt Q9NR97).
T1 construct: host or cells: HEK-Blue cells
T1 sequence (Q9NR97 27-1041): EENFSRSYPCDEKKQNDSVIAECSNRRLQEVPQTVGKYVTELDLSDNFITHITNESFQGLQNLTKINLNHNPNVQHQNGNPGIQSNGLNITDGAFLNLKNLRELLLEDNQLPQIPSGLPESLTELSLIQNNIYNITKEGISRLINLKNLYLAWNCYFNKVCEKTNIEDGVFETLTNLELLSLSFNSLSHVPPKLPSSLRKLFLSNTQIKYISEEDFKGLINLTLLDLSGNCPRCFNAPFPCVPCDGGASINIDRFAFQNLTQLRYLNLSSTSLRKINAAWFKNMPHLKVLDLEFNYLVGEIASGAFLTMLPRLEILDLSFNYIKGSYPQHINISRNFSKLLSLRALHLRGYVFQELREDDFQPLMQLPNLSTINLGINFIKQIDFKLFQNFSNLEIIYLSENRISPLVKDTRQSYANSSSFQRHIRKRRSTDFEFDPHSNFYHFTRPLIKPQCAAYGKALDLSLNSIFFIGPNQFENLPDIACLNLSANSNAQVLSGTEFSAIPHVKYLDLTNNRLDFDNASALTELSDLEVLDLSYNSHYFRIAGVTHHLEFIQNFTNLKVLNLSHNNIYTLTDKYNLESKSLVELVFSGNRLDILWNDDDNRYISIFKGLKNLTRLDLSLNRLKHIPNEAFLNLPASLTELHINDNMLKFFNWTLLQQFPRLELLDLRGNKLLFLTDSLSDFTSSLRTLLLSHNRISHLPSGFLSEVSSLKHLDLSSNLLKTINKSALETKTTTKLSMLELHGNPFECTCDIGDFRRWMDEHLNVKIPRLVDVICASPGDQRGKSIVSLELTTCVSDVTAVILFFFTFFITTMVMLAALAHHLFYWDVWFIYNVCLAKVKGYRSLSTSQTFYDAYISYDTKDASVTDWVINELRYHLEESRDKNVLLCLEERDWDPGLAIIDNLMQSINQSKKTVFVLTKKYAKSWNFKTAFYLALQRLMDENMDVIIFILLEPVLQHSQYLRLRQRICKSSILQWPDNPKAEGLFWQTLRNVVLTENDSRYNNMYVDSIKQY
The assay can be described thus: TLR8 inhibition reporter assay (HEK-Blue SEAP). In kind it is cell-based. The note with it: HEK-Blue cells overexpressing human TLR8, R848 15.9 μM, 22 hour incubation. Put shortly: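 HEK-Blue cells overexpressing human TLR7, TLR8 or TLR9 carry a SEAP reporter driven by NF-κB/AP-1 sites. Compounds (0.05 nM–50 μM) were preincubated 30 min at room temperature, then cells were stimulated with gardiquimod 7.5 μM (TLR7), R848 15.9 μM (TLR8) or ODN2006 5 nM (TLR9) for 22 h at 37 °C.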
(Reporter assays use an easily measured gene product as a stand-in for the process of interest.)
Regarding `COc1cc(-c2cc3[nH]c(=O)n(C4CCC(N5CCC(F)(F)C5)CC4)c3cc2C(C)C)cn2ncnc12` (single isomer, unassigned) [Example 294, 1-(4-(3,3-difluoropyrrolidin-1-yl)cyclohexyl)-6-isopropyl-5-(8-methoxy-[1,2,4]triazolo[1,5-a]pyridin-6-yl)-1,3-dihydro-2H-benzo[d]imidazol-2-one], the concentration for half-maximal inhibition (IC50) was 3.14 nM.
In turn, `COc1cc(-c2cc3[nH]c(=O)n(C4CCC(N5CCSCC5)CC4)c3cc2C(C)C)cn2ncnc12` (centres unmarked) [Example 251, 6-isopropyl-5-(8-methoxy-[1,2,4]triazolo[1,5-a]pyridin-6-yl)-1-(4-thiomorpholinocyclohexyl)-1,3-dihydro-2H-benzo[d]imidazol-2-one] registered an IC50 of 0.95 nM.
As for `Cc1cc2c(cc1-c1cc(C)c3ncnn3c1)[nH]c(=O)n2[C@H]1CC[C@@H](NC2CCOCC2)CC1` [Example 30, 6-methyl-5-(8-methyl-[1,2,4]triazolo[1,5-a]pyridin-6-yl)-1-((1s,4s)-4-((tetrahydro-2H-pyran-4-yl)amino)cyclohexyl)-1,3-dihydro-2H-benzo[d]imidazol-2-one], the figure is 3.12 nM.
The compound `COc1c(C)c(-c2cc3[nH]c(=O)n(C4CCC(NCC5(S(C)(=O)=O)CC5)CC4)c3cc2C(C)C)cn2ncnc12` (single isomer, unassigned) [Example 260] had an IC50 of 0.38 nM.
For the compound `COc1c(C)c(-c2cc3[nH]c(=O)n(C4CCC(N5CC6(COC6)C5)CC4)c3cc2C(C)C)cn2ncnc12` (single isomer, unassigned) [Example 269, 1-(4-(2-oxa-6-azaspiro[3.3]heptan-6-yl)cyclohexyl)-6-isopropyl-5-(8-methoxy-7-methyl-[1,2,4]triazolo[1,5-a]pyridin-6-yl)-1,3-dihydro-2H-benzo[d]imidazol-2-one], the IC50 was determined as 1.58 nM.
The compound `Cc1cc2c(cc1-c1cc(C)c3ncnn3c1)[nH]c(=O)n2[C@H]1CC[C@H](NC(C)C)CC1` [Example 25, 1-((1r,4s)-4-(isopropylamino)cyclohexyl)-6-methyl-5-(8-methyl-[1,2,4]triazolo[1,5-a]pyridin-6-yl)-1,3-dihydro-2H-benzo[d]imidazol-2-one] yielded an IC50 of 11.1 nM.
Compound `COc1cc(-c2cc3[nH]c(=O)n(C4CCC(N5CC(F)(F)C5)CC4)c3cc2C(C)C)cn2ncnc12` (single isomer, unassigned) [Example 296] gave an IC50 of 3.4 nM.
In turn, `Cc1cc2c(cc1-c1cc(C)c3ncnn3c1)[nH]c(=O)n2[C@H]1CC[C@H](N)CC1` [1 EF, 1-((1r,4r)-4-aminocyclohexyl)-6-methyl-5-(8-methyl-[1,2,4]triazolo[1,5-a]pyridin-6-yl)-1,3-dihydro-2H-benzo[d]imidazol-2-one] came in with an IC50 of 33.2 nM.
In the case of `COc1cc(-c2cc3[nH]c(=O)n(C4CCC(N5CCC(OC)C5)CC4)c3cc2C(C)C)cn2ncnc12` (centres unmarked) [Example 285, 6-isopropyl-5-(8-methoxy-[1,2,4]triazolo[1,5-a]pyridin-6-yl)-1-(4-(3-methoxypyrrolidin-1-yl)cyclohexyl)-1,3-dihydro-2H-benzo[d]imidazol-2-one] it was 0.13 nM.
In the case of `COc1cc(-c2cc3[nH]c(=O)n(C4CCC(N5C6CCC5COC6)CC4)c3cc2C(C)C)cn2ncnc12` (single isomer, unassigned) [Example 253, 1-(4-(3-oxa-8-azabicyclo[3.2.1]octan-8-yl)cyclohexyl)-6-isopropyl-5-(8-methoxy-[1,2,4]triazolo[1,5-a]pyridin-6-yl)-1,3-dihydro-2H-benzo[d]imidazol-2-one] it was 4.33 nM; in that of `Cc1c(-c2cc3[nH]c(=O)n(C4CCC(N5CCCC(F)C5)CC4)c3cc2C(C)C)cn2ncnc2c1C` (centres unmarked) [Example 274, 5-(7,8-dimethyl-[1,2,4]triazolo[1,5-a]pyridin-6-yl)-1-(4-(3-fluoropiperidin-1-yl)cyclohexyl)-6-isopropyl-1,3-dihydro-2H-benzo[d]imidazol-2-one], 1.09 nM.
In the case of `Cc1cc2c(cc1-c1cc(C)c3ncnn3c1)[nH]c(=O)n2[C@H]1CC[C@@H](N)CC1` [1 EE] it was 31.8 nM.
With `Cc1cc2c(cc1-c1cc(C)c3ncnn3c1)[nH]c(=O)n2C1CCCNC1` (centres unmarked) [1 EC, 6-methyl-5-(8-methyl-[1,2,4]triazolo[1,5-a]pyridin-6-yl)-1-(piperidin-3-yl)-1,3-dihydro-2H-benzo[d]imidazol-2-one], the IC50 worked out at 22.5 nM.
As for `COc1cc(-c2cc3[nH]c(=O)n([C@@H]4CCCNC4)c3cc2C)cn2ncnc12` [1 EH, (R)-5-(8-methoxy-[1,2,4]triazolo[1,5-a]pyridin-6-yl)-6-methyl-1-(piperidin-3-yl)-1,3-dihydro-2H-benzo[d]imidazol-2-one], the figure is 49.6 nM; as for `Cc1c(-c2cc3[nH]c(=O)n([C@@H]4CCCNC4)c3cc2C(C)C)cn2ncnc2c1C` [119 FC, (R)-5-(7,8-dimethyl-[1,2,4]triazolo[1,5-a]pyridin-6-yl)-6-isopropyl-1-(piperidin-3-yl)-1,3-dihydro-2H-benzo[d]imidazol-2-one], 7.17 nM.
As for `Cc1cc(-c2ccc3c(c2)[nH]c(=O)n3C2CCNCC2)cn2ncnc12` [1 EB, 5-(8-methyl-[1,2,4]triazolo[1,5-a]pyridin-6-yl)-1-(piperidin-4-yl)-1,3-dihydro-2H-benzo[d]imidazol-2-one], the figure is 1030 nM; as for `COc1c(C)c(-c2cc3[nH]c(=O)n(C4CCC(NCC5(S(C)(=O)=O)CC5)CC4)c3cc2C(C)C)cn2ncnc12` (single isomer, unassigned) [Example 259], 1.85 nM; as for `COc1cc(-c2cc3[nH]c(=O)n(C4CCC(N5C[C@@H](F)[C@@H](F)C5)CC4)c3cc2C(C)C)cn2ncnc12` (single isomer, unassigned) [Example 293], 7.74 nM.
Consider `Cc1cc2c(cc1-c1cc(C)c3ncnn3c1)[nH]c(=O)n2[C@H]1CC[C@@H](NC(C)C)CC1` [Example 22, 1-((1s,4s)-4-(isopropylamino)cyclohexyl)-6-methyl-5-(8-methyl-[1,2,4]triazolo[1,5-a]pyridin-6-yl)-1,3-dihydro-2H-benzo[d]imidazol-2-one], for which the IC50 was determined as 4.08 nM.
In the case of `Cc1cc2c(cc1-c1cc(C)c3ncnn3c1)[nH]c(=O)n2[C@H]1CC[C@@H](N(C)C)CC1` [Example 19, 1-((1s,4s)-4-(dimethylamino)cyclohexyl)-6-methyl-5-(8-methyl-[1,2,4]triazolo[1,5-a]pyridin-6-yl)-1,3-dihydro-2H-benzo[d]imidazol-2-one] it was 32 nM; in that of `CCC(C)N1CCC[C@@H](n2c(=O)[nH]c3cc(-c4cc(C)c5ncnn5c4)c(C)cc32)C1` (stereo partly drawn) [Example 28, 1-((3R)-1-(sec-butyl)piperidin-3-yl)-6-methyl-5-(8-methyl-[1,2,4]triazolo[1,5-a]pyridin-6-yl)-1,3-dihydro-2H-benzo[d]imidazol-2-one], 22.5 nM; in that of `COc1cc(-c2cc3[nH]c(=O)n([C@H]4CC[C@@H](N)CC4)c3cc2C)cn2ncnc12` [1 EG, 1-((1s,4s)-4-aminocyclohexyl)-5-(8-methoxy-[1,2,4]triazolo[1,5-a]pyridin-6-yl)-6-methyl-1,3-dihydro-2H-benzo[d]imidazol-2-one], 32.6 nM.
Turning to `COC[C@@H]1CCN(C2CCC(n3c(=O)[nH]c4cc(-c5cc(OC)c6ncnn6c5)c(C(C)C)cc43)CC2)C1` (single isomer, unassigned) [Example 290], the IC50 is 0.53 nM.
For the compound `Cc1cc2c(cc1-c1cc(C)c3ncnn3c1)[nH]c(=O)n2[C@@H]1CCCN(C2COC2)C1` [Example 18, (R)-6-methyl-5-(8-methyl-[1,2,4]triazolo[1,5-a]pyridin-6-yl)-1-(1-(oxetan-3-yl)piperidin-3-yl)-1,3-dihydro-2H-benzo[d]imidazol-2-one], the IC50 worked out at 80.8 nM.
In the case of `COC1CN(C2CCC(n3c(=O)[nH]c4cc(-c5cn6ncnc6c(C)c5C)c(C(C)C)cc43)CC2)C1` (single isomer, unassigned) [Example 277, 5-(7,8-dimethyl-[1,2,4]triazolo[1,5-a]pyridin-6-yl)-6-isopropyl-1-(4-(3-methoxyazetidin-1-yl)cyclohexyl)-1,3-dihydro-2H-benzo[d]imidazol-2-one] it was 0.74 nM; in that of `COc1cc(-c2cc3[nH]c(=O)n(C4CCC(N5CCC(OC)C5)CC4)c3cc2C(C)C)cn2ncnc12` (centres unmarked) [Example 284, 6-isopropyl-5-(8-methoxy-[1,2,4]triazolo[1,5-a]pyridin-6-yl)-1-(4-(3-methoxypyrrolidin-1-yl)cyclohexyl)-1,3-dihydro-2H-benzo[d]imidazol-2-one], 0.18 nM.

Values taken from patent US12187723B2 (BRISTOL-MYERS SQUIBB COMPANY, priority 2019, dated 2025).
